Results published in patent US20230357099A1, “PYRAZOLO [3,4-B] PYRIDINE-4-CARBOXAMIDE NITRIFICATION INHIBITOR” (EUROCHEM ANTWERPTEN, priority 2020, published 2023).
Read-outs that look alike come from different tables or passages of the source.

Columns and labels:
[1] = tested on: ABIL (ammonia-binding liquid inoculum), nitrifying microbial enrichment containing both AOA and AOB; assay: Nitrification inhibition assay on ABIL (ammonium consumption); type: cell-based; details: for activity at 10 µM / ABIL - relative nitrification (%) at 10 µM: 10 µM compound
[2] = tested on: Nitrososphaera viennensis; assay: Nitrification inhibition assay on Nitrososphaera viennensis (nitrite, Griess); type: cell-based, Nitrososphaera viennensis EN76T; details: for N. viennensis - relative nitrification (%) at 0.5 µM: 0.5 µM compound; for N. viennensis - relative nitrification (%) at 0.5 µM / N. viennensis - relative nitrification (%) at 5 µM / N. viennensis - relative nitrification (%) at 25 µM: 0% = as strong as 100 µM PTIO, 100% = no inhibition; for N. viennensis - relative nitrification (%) at 5 µM: 5 µM compound; for N. viennensis - relative nitrification (%) at 25 µM: 25 µM compound; for activity at 2.5 µM: Nitrososphaera viennensis, 2.5 µM compound, structural variants outside formula (I), read-out: Relative nitrification (%) by Nitrososphaera viennensis treated with 2.5 µM compound
Protocol: Nitrite (NO2—) was measured using the Griess reagent (Product number: G4410, Griess reagent (modified), Sigma-Aldrich). Equal volumes of the sample or a diluted sample and the Griess reagent were mixed a transparent flat bottom multi-well plate and incubated in the dark at room temperature for 10 minutes. Absorbance values at 540 nm were measured spectrophotometrically (EnVision, Perkin Elmer®) and used to calculate the [NO2—] by use of a standard curve.
A liquid culture sample of Nitrososphaera viennensis EN76T was kindly supplied by prof. dr. Christa Schleper (University of Vienna). Cells were grown in fresh water medium (FWM) as described earlier by Tourna et al. (2011). All necessary materials were rinsed with 1 % HCl and washed at least 3 times with MilliQ water. FWM (pH 7.5 (KOH)) contained 17 mM NaCl, 3 mM MgCl2 × 2 H2O, 680 µM CaCl2 × 2 H2O, 1.47 mM KH2PO4 and 6.71 mM KCI. After autoclaving, successively 1 mL non-chelated trace element mixture (101 mM HCl, 488 µM H3BO3, 508 µM MnCl2 × 4 H2O, 803 µM CoCl2 × 6 H2O, 101 µM NiCl2 × 6 H2O, 12 µM CuCl2 × 2 H2O, 503 µM ZnSO4 × 7 H2O and 150 µM Na2MoO4 × 2 H2O), 1 mL Fe-NaEDTA (7.5 mM), 1 mL vitamin solution (20 mg/L biotin, 20 mg/L folic acid, 100 mg/L pyridoxine-HCl, 50 mg/L thiamine-HCl, 50 mg/L riboflavin, 50 mg/L nicotinic acid, 50 mg/L DL-pantothenic acid, 50 mg/L P-aminobenzoic acid, 2 g/L choline chloride and 10 mg/L vitamin B12), 2 mL NaHCO3 (1 M), 2 mL kanamycin (100 mg/mL), 2 mL carbenicillin (100 mg/mL), 3 mL NH4Cl (1 M), 10 mL HEPES buffer (1 M, pH 7.6) and 1 mL Na-pyruvate (0.1 M) were added aseptically. All stock-solutions were filter-sterilized, except the autoclaved non-chelated trace element mixture. Cultures were incubated aerobically at 42° C. without shaking in sterile 250-mL Erlenmeyer flasks or 30-mL cultivation tubes (Product number: 216-1290, Quickstart universal containers STERILIN®, VWR) filled with either 100 or 20 mL FWM and sealed with tape (Micropore™ Surgical Tape 1530-1, 3M™). Late-log phase cultures ([NO2-] ≥ 1 mM) were subcultivated by dilution (1:400) in fresh FWM.
7-day old 100 mL cultures grown in 250-mL Erlenmeyer flasks with a [NO2-] ≥ 1 mM were 5 times overconcentrated in fresh FWM by centrifugation (4000 rpm, 15 min, 5° C.) in 50 mL centrifuge tubes (Cat. No. 430829, CentriStar™ Conical Centrifuge Tubes, Corning®). Per batch, all the cultures were pooled in one sterile Schott bottle. Subsequently, 200 µl/well was dispensed at low pipetting speed in transparent flat bottom 96-well plates (Cat. No. 353072, Falcon® 96 Well Clear Microplate, Corning®) using 150 µl wide-bore tips (two steps of 100 µl) on a Tecan robot (Freedom EVO®, Tecan). 0.5 µl of 99.99 % DMSO (negative control - final concentration 0.25%) and 0.5 µl of 0.04 M PTIO (2-phenyl-4,4,5,5-tetramethylimidazoline-1-oxyl 3-oxide, positive control - final concentration 100 µM) were added manually to the first and last column respectively. Finally, 0.5 µl of candidate nitrification inhibitors (1 mM stock solutions in 99.99% DMSO - final concentration 2.5 µM) were added to the central wells using a pin tool on a Tecan robot (Freedom EVO®, Tecan). In between additions, the pins were washed in sequence with 99.5% DMSO, MilliQ water and 100% ethanol and air-dried. All plates were sealed with tape (Micropore™ Surgical Tape 1530-1, 3M™), stacked per 4 on top of a 96-well plate filled with 100 µl MilliQ per well and covered with aluminum foil. Position effects of the stacks within the incubator were considered. Plates were incubated at 42° C. without shaking. 24 h later, NO2— was measured spectrophotometrically at 540 nm (EnVision, Perkin Elmer®). […]

[3] = 24 h, 24 h, 0% = as strong as 100 µM PTIO, 100% = no inhibition, read-out: ABIL - relative nitrification (%) at 10 µM
[4] = 24 h, 0% = as strong as 100 µM PTIO, 100% = no inhibition
[5] = structural variants outside formula (I), read-out: Relative nitrification (%) by ABIL treated with 10 µM compound

| Compound | activity at 10 µM [1, 3] [%] | activity at 10 µM [1, 5] [%] | activity at 2.5 µM [2] [%] | further results |
| --- | --- | --- | --- | --- |
| COCCNC(=O)c1cc(-c2ccc(C)cc2)nc2c1cnn2C(C)C [Example 1] | -9 | – | – | N. viennensis - relative nitrification (%) at 0.5 µM [2]: 52%; N. viennensis - relative nitrification (%) at 5 µM [2]: 0%; N. viennensis - relative nitrification (%) at 25 µM [2]: 0% |
| Cc1nn(C)c2nc(C(C)C)cc(C(=O)N(C)c3nc4ccccc4s3)c12 [Example 3] | -41 | – | – | ABIL - relative nitrification (%) at 2 µM ([1]; 2 µM compound, 0% = as strong as 100 µM PTIO, 100% = no inhibition): -30%; N. viennensis - relative nitrification (%) at 0.5 µM [2]: 49%; N. viennensis - relative nitrification (%) at 5 µM [2]: 0%; N. viennensis - relative nitrification (%) at 25 µM [2]: 0% |
| CC(C)c1cc(C(=O)NCC2CCCO2)c2cnn(C(C)C)c2n1 (centres unmarked) [Example 4] | – | – | – | ABIL - relative nitrification (%) at 10 µM [1, 4]: 10% |
| COCCNC(=O)c1cc(C2CC2)nc2c1cnn2C(C)C [Example 5] | 11 | – | – | – |
| COCCONC(=O)c1cc(C2CC2)nc2c1c(C)nn2C(C)(C)C [Example 6] | 16 | – | – | – |
| CC(C)n1ncc2c(C(=O)Nc3nc4c(s3)CCC4)cc(C3CC3)nc21 [Example 7] | – | – | – | N. viennensis - relative nitrification (%) at 0.5 µM [2]: 85%; N. viennensis - relative nitrification (%) at 5 µM [2]: 7%; N. viennensis - relative nitrification (%) at 25 µM [2]: 2% |
| Cc1nn(C)c2nc(-c3ccco3)cc(C(=O)N(C)CCOc3cccc(Cl)c3)c12 [Example 8] | – | – | – | N. viennensis - relative nitrification (%) at 0.5 µM [2]: 100%; N. viennensis - relative nitrification (%) at 5 µM [2]: 98%; N. viennensis - relative nitrification (%) at 25 µM [2]: 5% |
| CCn1ncc2c(C(=O)NCC3CCCO3)cc(-c3ccccc3)nc21 (centres unmarked) [Example 9] | – | – | – | N. viennensis - relative nitrification (%) at 0.5 µM [2]: 100%; N. viennensis - relative nitrification (%) at 5 µM [2]: 100%; N. viennensis - relative nitrification (%) at 25 µM [2]: 54% |
| CC(C)n1ncc2c(C(=O)NCCc3ccccn3)cc(C3CC3)nc21 [Example 10] | 19 | – | – | – |
| Cc1nn(C(C)(C)C)c2nc(C3CC3)cc(C(=O)N(C)C)c12 [Example 11] | 25 | – | – | – |
| Cc1nn(C(C)(C)C)c2nc(C3CC3)cc(C(=O)NC(C)C)c12 [Example 12] | 30 | – | – | – |
| CC(C)c1cc(C(=O)NCC2CCCO2)c2cnn(C(C)C)c2n1 (centres unmarked) [Example 13] | – | – | – | ABIL - relative nitrification (%) at 10 µM [1, 4]: 49% |
| CCC(C)NC(=O)c1cc(C(C)C)nc2c1cnn2C(C)C (centres unmarked) [Example 14] | 61 | – | – | – |
| CC(C)n1ncc2c(C(=O)NCCN(C)C)cc(C3CC3)nc21 [Example 15] | 65 | – | – | – |
| Cc1nn(C)c2nc(C3CC3)cc(C(=O)NCCC(C)C)c12 [Example 16] | 65 | – | – | – |
| Cc1nn(C)c2nc(C3CC3)cc(C(=O)N(C)CC(=O)Nc3ccc(Cl)c(Cl)c3)c12 [Example 17] | 68 | – | – | – |
| CCCN(C)C(=O)c1cc(C2CC2)nc2c1cnn2C(C)C [Example 18] | 69 | – | – | – |
| CC(C)n1ncc2cc(NC(=O)C3CC3(Cl)Cl)cnc21 (centres unmarked) [Example 19] | – | 90 | 100 | – |
| Cc1n[nH]c2nc(C(F)(F)F)cc(C(F)(F)F)c12 [Example 20] | – | 90 | 100 | – |
| Cc1nn(C)c2ncc(C(=O)NCC3CN(CC(C)C)CCO3)cc12 (centres unmarked) [Example 21] | – | 90 | 100 | – |

| Compound | activity at 10 µM [1, 3] [%] | activity at 10 µM [1, 5] [%] | activity at 2.5 µM [2] [%] | further results |
| --- | --- | --- | --- | --- |
| CC(Oc1ccc(Br)cc1)C(=O)Nc1cnc2c(cnn2C(C)C)c1 (centres unmarked) [Example 22] | – | 90 | 100 | – |
| CC(=O)NC(CC(=O)Nc1cnc2c(cnn2C(C)C)c1)c1ccc(Cl)cc1 (centres unmarked) [Example 23] | – | 91 | 100 | – |
| CCc1nnc(NC(=O)c2cnc3c(cnn3C(C)C)c2)s1 [Example 24] | – | 91 | 100 | – |
| c1csc(Cn2ncc3ccc(-c4ccc5c(c4)OCO5)nc32)c1 [Example 25] | – | 91 | 100 | – |
| Cc1nc2c(cnn2C(C)C)c(C)c1CCC(=O)N1CCSCC1 [Example 26] | – | 92 | 100 | – |
| CNC(=O)N(C)C(=O)c1cnc2c(cnn2C(C)C)c1 [Example 27] | – | 92 | 100 | – |
| CC(C)n1ncc2cc(NC(=O)CCS(=O)(=O)c3ccc(Cl)cc3)cnc21 [Example 28] | – | 92 | 100 | – |
| CCN(CC1CCOC1)C(=O)c1cnc2c(cnn2C(C)C)c1 (centres unmarked) [Example 29] | – | 92 | 100 | – |
| CC(C)n1ncc2cc(CNc3ccc4[nH]ncc4c3)ccc21 [Example 30] | – | 92 | 100 | – |
| Cc1nc2c(cnn2C(C)C)cc1C(=O)NC(C)C1CC1 (centres unmarked) [Example 31] | – | 93 | 99 | – |
| CCC(C)n1ncc2c(C(=O)O)cc(C3CC3)nc21 (centres unmarked) [Example 32] | – | 94 | 90 | – |
| CC(C)n1ncc2cc(C(=O)Nc3ccc(F)cc3F)cnc21 [Example 33] | – | 94 | 100 | – |
| CCc1cccc(NC(=O)CCc2c(C)nc3c(c(C)nn3C)c2C)c1 [Example 34] | – | 96 | 99 | – |
| CC(C)n1ncc2cc(NC(=O)CCC3CCCO3)cnc21 (centres unmarked) [Example 35] | – | 96 | 98 | – |
| Cc1nc2c(c(C)nn2C)c(C)c1CCC(=O)O [Example 36] | – | 97 | 94 | – |
| Cc1nn(C)c2ncc(CNCCCN3CCc4ccccc43)cc12 [Example 37] | – | 97 | 100 | – |
| CC(C)n1ncc2cc(CN(C)C3CCSC3)cnc21 (centres unmarked) [Example 38] | – | 97 | 99 | – |
| COc1ccc(OC)c(C(C)NC(=O)c2cnc3c(cnn3C(C)C)c2)c1 (centres unmarked) [Example 39] | – | 97 | 100 | – |
| Cc1n[nH]c2ncc(CNCCc3ccsc3)cc12 [Example 40] | – | 98 | 93 | – |
